In patent US20240043435A1, “TYK-2 INHIBITOR” (BEIGENE, LTD., priority 2020, published 2024):

Key:
[1] = molecular target: T1, TYK2-JH2 (aa 575-869, in-house) protein (Homo sapiens, UniProt P29597); assay: TYK2-JH2 biochemical assay (HTRF probe displacement); format: binding; settings: Biochemical assay; read-out: TYK2-JH2 IC50
T1 construct: TYK2-JH2 (aa 575-869, in-house) protein; made in house
Procedure, shortened: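 HTRF probe-displacement format: compound dilutions (10 points, 5-fold, from 500 uM in DMSO at 500×) were combined with 0.2 nM TYK2-JH2 protein for 0.5 h at room temperature in HEPES pH 7.5 buffer with MgCl2, BSA, DTT and Brij-35. Percent inhibition came from the 615/665 nm fluorescence ratio, fitted to a four-parameter logistic for IC50.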

pSTAT5/GM-CSF = pSTAT5/GM-CSF cellular assay (JAK2 selectivity); format: cell-based; settings: for Selectivity fold (TYK2/JAK2): pSTAT5/GM-CSF IC50 over pSTAT4/IL-12 IC50
[2] = test system: JAK2, TYK2/p-STAT4 (Tyr693) activated by IL-12 in NK-92 cell line; assay: IL-12-JAK2, TYK2/p-STAT4 (Tyr693) inhibition IC50 cellular assay; format: cell-based; settings: for Selectivity fold (TYK2/JAK2): Cellular assay, pSTAT5/GM-CSF IC50 vs pSTAT4/IL-12 IC50; for IC50: NK92, Cellular assay, read-out: pSTAT4/IL-12 IC50
Procedure, shortened: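 p-STAT4 (Tyr693) in lysates was measured by AlphaLISA SureFire Ultra after a 30 min IL-12 challenge (40 ng/ml final) at 37° C. Overnight-starved, IL-2-free NK-92 cells had been pretreated 1 h with compound at 10000 to 0.61 nM (4-fold, 8 points). IC50 values came from four-parameter logistic fitting.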

T1 sequence (P29597 575-869): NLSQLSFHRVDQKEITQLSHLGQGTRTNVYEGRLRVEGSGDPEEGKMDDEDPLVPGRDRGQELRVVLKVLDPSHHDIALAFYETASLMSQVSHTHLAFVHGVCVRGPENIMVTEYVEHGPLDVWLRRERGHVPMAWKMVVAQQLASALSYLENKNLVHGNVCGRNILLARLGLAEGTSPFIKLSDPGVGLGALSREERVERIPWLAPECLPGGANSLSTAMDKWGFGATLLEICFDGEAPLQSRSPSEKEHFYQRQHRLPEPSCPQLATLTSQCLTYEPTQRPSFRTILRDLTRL

Row | IC50 [1] [nM] | IC50 (pSTAT5/GM-CSF) [nM] | IC50 [2] [nM] | SMILES | Selectivity fold (TYK2/JAK2) [2] [fold] | Selectivity fold (TYK2/JAK2) (pSTAT5/GM-CSF) [fold]
1 | 0.025 | 2350 | 2.84 | COCC1CCN(c2cc(Nc3cc(NC(C)=O)ncc3-c3ccc4c(n3)OCC(C)(C)O4)nc(S(C)(=O)=O)c2)C1 (centres unmarked) [Example Q73, N-(5-(2,2-dimethyl-2,3-dihydro-[1,4]dioxino[2,3-b]pyridin-6-yl)-4-((4-(3-(methoxymethyl)pyrrolidin-1-yl)-6-(methylsulfonyl)pyridin-2-yl)amino)pyridin-2-yl)acetamide] | – | 828
2 | 0.022 | > 10000 | 3 | CC(=O)Nc1cc(Nc2cc(OC(C)C)cc(S(C)(=O)=O)n2)c(-c2ccn(C)n2)cn1 [Example J2, N-(4-((4-isopropoxy-6-(methylsulfonyl)pyridin-2-yl)amino)-5-(1-methyl-1H-pyrazol-3-yl)pyridin-2-yl)acetamide] | – | >3333
3 | 0.043 | > 10000 | 1.58 | CC(=O)Nc1cc(Nc2ccc(C)c(S(C)(=O)=O)n2)c(-c2ccn(C)n2)cn1 [Example J51, N-(5-(1-methyl-1H-pyrazol-3-yl)-4-((5-methyl-6-(methylsulfonyl)pyridin-2-yl)amino)pyridin-2-yl)acetamide] | – | >6329
4 | 0.017 | 6420 | 0.275 | CC(=O)Nc1cc(Nc2cccc(S(C)(=O)=O)n2)c(-c2ccn(C)n2)cn1 [Example J11, N-(5-(1-methyl-1H-pyrazol-3-yl)-4-((6-(methylsulfonyl)pyridin-2-yl)amino)pyridin-2-yl)actamide] | – | 23327
5 | 0.027 | 532 | 0.316 | CC(=O)Nc1cc(Nc2cccc(S(C)(=O)=O)n2)c(-c2ccn(C(C)C)n2)cn1 [Example M22, N-(5-(1-isopropyl-1H-pyrazol-3-yl)-4-((6-(methylsulfonyl)pyridin-2-yl)amino)pyridin-2-yl)acetamide] | – | 1683
6 | 0.021 | > 10000 | 1.43 | CC(=O)Nc1cc(Nc2cc(C(F)(F)F)cc(S(C)(=O)=O)n2)c(-c2ccn(C)n2)cn1 [Example J52, N-(5-(1-methyl-1H-pyrazol-3-yl)-4-((6-(methylsulfonyl)-4-(trifluoromethyl)pyridin-2-yl)amino)pyridin-2-yl)acetamide] | – | >699
7 | 0.053 | > 10000 | 3.14 | CC(=O)Nc1cc(Nc2cccc(S(=O)(=O)C3CC3)n2)c(-c2ccn(C)n2)cn1 [Example J28, N-(4-((6-(cyclopropylsulfonyl)py-ridin-2-yl)amino)-5-(1-methyl-1H-pyrazol-3-yl)pyridin-2-yl)acetamide] | – | >3184
8 | 0.04 | > 10000 | 1.64 | CCn1ccc(-c2cnc(NC(C)=O)cc2Nc2cccc(S(C)(=O)=O)c2)n1 [Example M8, N-(5-(1-ethyl-1H-pyrazol-3-yl)-4-((3-(methylsulfonyl)phenyl)amino)pyridin-2-yl)acetamide] | – | >6097
9 | 0.055 | 2010 | 0.174 | CC(=O)Nc1cc(Nc2cccc(S(C)(=O)=O)n2)c(-c2ccn(C3CC3)n2)cn1 [Example M1, N-(5-(1-cyclopropyl-1H-pyrazol-3-yl)-4-((6-(methylsulfonyl)pyridin-2-yl)amino)pyridin-2-yl)acetamide] | – | 11551
10 | 0.021 | > 10000 | 0.641 | CC(=O)Nc1cc(Nc2cc(OC(C)C)cc(S(C)(=O)=O)n2)c(-c2cc(C)n(C)n2)cn1 [Example N2, N-(5-(1,5-dimethyl-1H-pyrazol-3-yl)-4-((4-isopropoxy-6-(methylsulfonyl)pyridin-2-yl)amino)pyridin-2-yl)acetamide] | – | >15600
11 | 0.032 | > 10000 | 1.04 | CC(=O)Nc1cc(Nc2cc(OC(C)C)cc(S(C)(=O)=O)n2)c(-c2ccn(C3CC3)n2)cn1 [Example M2, N-(5-(1-cyclopropyl-1H-pyrazol-3-yl)-4-((4-isopropoxy-6-(methylsulfonyl)pyridin-2-yl)amino)pyridin-2-yl)acetamide] | – | >9615
12 | 0.05 | > 10000 | 0.796 | CC(=O)Nc1cc(Nc2cc(C(F)F)cc(S(C)(=O)=O)n2)c(-c2ccn(C)n2)cn1 [Example J42, N-(4-((4-(difluoromethyl)-6-(methylsulfonyl)pyridin-2-yl)amino)-5-(1-methyl-1H-pyrazol-3-yl)pyridin-2-yl)acetamide] | – | >12562

More lines, now with the values behind:

Row | SMILES | IC50 [1] [nM] | IC50 (pSTAT5/GM-CSF) [nM] | IC50 [2] [nM] | Selectivity fold (TYK2/JAK2) [2] [fold] | Selectivity fold (TYK2/JAK2) (pSTAT5/GM-CSF) [fold]
13 | COCCOc1ccc(-c2cnc(NC(C)=O)cc2Nc2cc(OCC3CC3)cc(S(C)(=O)=O)c2)nc1 [Example D10, N-(4′-((3-(cyclopropylmethoxy)-5-(methylsulfonyl)phenyl)amino)-5-(2-methoxyethoxy)-[2,3′-bipyridin]-6′-yl)acetamide] | 0.052 | > 10000 | 12.7 | >789 | –
14 | CC(=O)Nc1cc(Nc2cc(OC(C)C)cc(S(C)(=O)=O)n2)c(-n2cccn2)cn1 [Example A12, N-(4-((4-isopropoxy-6-(methylsulfonyl)pyridin-2-yl)amino)-5-(1H-pyrazol-1-yl)pyridin-2-yl)acetamide] | 0.037 | > 10000 | 16.8 | >595 | –
15 | CC(=O)Nc1cc(Nc2cc(C3CC3)cc(S(C)(=O)=O)n2)c(-c2ccc(F)cn2)cn1 [Example F25, N-(4′-((4-cyclopropyl-6-(methylsulfonyl)pyridin-2-yl)amino)-5-fluoro-[2,3′-bipyridin]-6′-yl)acetamide] | 0.029 | > 10000 | 0.446 | >22421 | –
16 | CC(=O)Nc1cc(Nc2cccc(S(C)(=O)=O)n2)c(-c2ccc(N3CCOC(C)(C)C3)cn2)cn1 [Example B12, N-(5-(2,2-dimethylmorpholino)-4′-((6-(methylsulfonyl)pyridin-2-yl)amino)-[2,3′-bipyridin]-6′-yl)acetamide] | 0.034 | 610 | 0.74 | 824 | –
17 | CC(=O)Nc1cc(Nc2cc(N3CCC(O)C3)cc(S(C)(=O)=O)c2)c(-c2ccc(C(C)(C)O)cn2)cn1 (centres unmarked) [Example H17, N-(5-(2-hydroxypropan-2-yl)-4′-((3-(3-hydroxypyrrolidin-1-yl)-5-(methylsulfonyl)phenyl)amino)-[2,3′-bipyridin]-6′-yl)acetamide] | 0.034 | > 10000 | 67 | >149 | –
18 | CC(=O)Nc1cc(Nc2cc(OC3CCC3)cc(S(C)(=O)=O)n2)c(-c2ccn(C)n2)cn1 [Example J44, N-(4-((4-cyclobutoxy-6-(methylsulfonyl)pyridin-2-yl)amino)-5-(1-methyl-1H-pyrazol-3-yl)pyridin-2-yl)acetamide] | 0.022 | > 10000 | 0.358 | – | >27932
19 | CC(=O)Nc1cc(Nc2cc(OC(C)C)cc(S(C)(=O)=O)n2)c(-c2ccc(C(F)(F)F)cn2)cn1 [Example F9, N-(4′-((4-isopropoxy-6-(methylsulfonyl)pyridin-2-yl)amino)-5-(trifluoromethyl)-[2,3′-bipyridin]-6′-yl)acetamide] | 0.06 | > 10000 | 5.45 | > 1834 | –
20 | CC(=O)Nc1cc(Nc2cccc(S(C)(=O)=O)c2)c(-c2ccc(C(F)(F)F)cn2)cn1 [Example F2, N-(4′-((3-(methylsulfonyl)phenyl)amino)-5-(trifluoromethyl)-[2,3′-bipyridin]-6′-yl)acetamide] | 0.051 | > 10000 | 22.1 | >451 | –
21 | CC(=O)Nc1cc(Nc2cccc(S(C)(=O)=O)n2)c(-c2cccnn2)cn1 [Example A24, N-(4-((6-(methylsulfonyl)pyridin-2-yl)amino)-5-(pyridazin-3-yl)pyridin-2-yl)acetamide] | 0.027 | > 10000 | 1.85 | >5405 | –
22 | CC(=O)Nc1cc(Nc2cc(OCC3CC3)cc(S(C)(=O)=O)c2)c(-c2ccc(C(C)(C)O)cn2)cn1 [Example H22, N-(4′-((3-(cyclopropylmethoxy)-5-(methylsulfonyl)phenyl)amino)-5-(2-hydroxypropan-2-yl)-[2,3′-bipyridin]-6′-yl)acetamide] | 0.038 | > 10000 | 2.76 | >3623 | –
23 | CC(=O)Nc1cc(Nc2cccc(S(C)(=O)=O)n2)c(-c2c[nH]cn2)cn1 [Example A3, N-(5-(1H-imidazol-4-yl)-4-((6-(methylsulfonyl)pyridin-2-yl)amino)pyridin-2-yl)acetamide] | 0.035 | > 10000 | 2.53 | >3952 | –
